Data: patent publication US7932211B2, “4-(4-trifluoromethyl-3-thiobenzoyl)pyrazoles and their use as herbicides” (Bayer Cropscience AG, priority 2007, dated 2011)

Legend:
Format in all cases: in vivo
VIOTR Viola tricolor [1] = assay: Pre-emergence herbicidal action against harmful plants; details: 80 g a.i./ha, visual scoring 3-4 weeks after treatment, Comparative Table 9
Excerpt: (§1) Seeds or rhizome pieces of mono- and dicotyledonous harmful plants are placed in sandy loam in pots of a diameter of 9 to 13 cm and covered with soil. The herbicides, formulated as emulsifiable concentrates or dusts, are applied to the surface of the covering soil in the form of aqueous dispersions or suspensions or emulsions at an application rate of 300 to 800 l of water/ha (converted), at various dosages. For further cultivation of the plants, the pots are then kept in a greenhouse under optimum conditions. The visual scoring of the damage to the harmful plants is carried out 3-4 weeks after the treatment. As shown by the results of these comparative tables, the selected compounds according to the invention have better herbicidal activity against a broad spectrum of economically important mono- and dicotyledonous harmful plants than the compounds disclosed in the prior art.

[2] = test system: XANST Xanthium strumarium; assay: as above; details: 80 g a.i./ha, visual scoring 3-4 weeks after treatment, Comparative Table 9
Excerpt: as §1

VERPE Veronica persica [3] = assay: as above; details: 80 g a.i./ha, visual scoring 3-4 weeks after treatment
Excerpt: as §1

SETVI Setaria viridis [4] = assay: Post-emergence herbicidal action against harmful plants; details: scored after 3 to 4 weeks
Procedure: (§2) Seeds of mono- and dicotyledonous harmful plants are placed in sandy loam in cardboard pots, covered with soil and grown in the greenhouse under good growth conditions. Two to three weeks after sowing, the test plants are treated at the three-leaf stage. The compounds according to the invention, which are formulated as wettable powders or as emulsion concentrates, are sprayed at an application rate of 600 to 800 l of water/ha (converted) in a dosage stated in tables 1 to 5 onto the surface of the green plant parts. After the test plants have been left to stand in the greenhouse for 3 to 4 weeks under optimum growth conditions, the action of the compounds according to the invention is scored in comparison to compounds disclosed in the prior art. As shown by the results of these comparison tables, the selected compounds according to the invention have better herbicidal activity against a broad spectrum of economically important mono- and dicotyledonous harmful plants than the compounds disclosed in the prior art.

[5] = test system: ECHCG Echinochloa crus galli; assay: as above; details: scored after 3 to 4 weeks
Procedure: as §2

LOLMU Lolium multiflorum [6] = assay: as above; details: scored after 3 to 4 weeks
Procedure: as §2

VIOTR Viola tricolor [7] = assay: as above; details: 80 g a.i./ha, scored after 3 to 4 weeks
Procedure: as §2

[8] = test system: XANST Xanthium strumarium; assay: as above; details: 80 g a.i./ha, scored after 3 to 4 weeks, Comparative Table 11
Procedure: as §2

VERPE Veronica persica [9] = assay: as above; details: 80 g a.i./ha, scored after 3 to 4 weeks
Procedure: as §2

MATIN Matricaria inodora = assay: as above; details: 80 g a.i./ha, scored after 3 to 4 weeks
Procedure: as §2

[10] = test system: AMARE Amaranthus retroflexus; assay: as above; details: Port-emergence, 80 g a.i./ha, scored after 3 to 4 weeks; Comparative Table 4
Procedure: as §2

[11] = test system: ABUTH Abutilon theophrasti; assay: as above; details: Port-emergence, 80 g a.i./ha, scored after 3 to 4 weeks; Comparative Table 4
Procedure: as §2

AVESA [12] = assay: as above; details: Port-emergence, scored after 3 to 4 weeks, Comparative Table 7
Procedure: as §2

[13] = test system: ECHCG Echinochloa crus galli; assay: Pre-emergence herbicidal action against harmful plants; details: 80 g a.i./ha, visual scoring 3-4 weeks after treatment, Comparative Table 1
Excerpt: as §1

LOLMU Lolium multiflorum [14] = assay: as above; details: visual scoring 3-4 weeks after treatment
Excerpt: as §1

[15] = test system: ABUTH Abutilon theophrasti; assay: as above; details: 80 g a.i./ha, visual scoring 3-4 weeks after treatment, Comparative Table 1
Excerpt: as §1

GALAP Galium aparine = assay: as above; details: 80 g a.i./ha, visual scoring 3-4 weeks after treatment, Comparative Table 8
Excerpt: as §1

[16] = test system: POLCO Polygonum convolvulus; assay: as above; details: 80 g a.i./ha, visual scoring 3-4 weeks after treatment, Comparative Table 8
Excerpt: as §1

SETVI Setaria viridis [17] = assay: as above; details: 320 g a.i./ha, visual scoring 3-4 weeks after treatment, Comparative Table 6
Excerpt: as §1

AVESA [18] = assay: as above; details: 320 g a.i./ha, visual scoring 3-4 weeks after treatment, Comparative Table 6
Excerpt: as §1

[19] = test system: AMARE Amaranthus retroflexus; assay: as above; details: visual scoring 3-4 weeks after treatment
Excerpt: as §1

STEME Stellaria media [20] = assay: Post-emergence herbicidal action against harmful plants; details: Port-emergence, 80 g a.i./ha, scored after 3 to 4 weeks; Comparative Table 5
Procedure: as §2

[21] = test system: POLCO Polygonum convolvulus; assay: as above; details: Port-emergence, 80 g a.i./ha, scored after 3 to 4 weeks; Comparative Table 5
Procedure: as §2

[22] = test system: DIGSA Digitaria sanguinalis; assay: as above; details: 80 g a.i./ha, scored after 3 to 4 weeks, Comparative Table 10
Procedure: as §2

STEME Stellaria media [23] = assay: Pre-emergence herbicidal action against harmful plants; details: 80 g a.i./ha, visual scoring 3-4 weeks after treatment, Comparative Table 2
Excerpt: as §1

[24] = Post-emergence, 80 g a.i./ha, Comparative Table 3
[25] = Post-emergence, Comparative Table 11
[26] = Port-emergence, Comparative Table 4
[27] = Port-emergence, 80 g a.i./ha, Comparative Table 7
[28] = 80 g a.i./ha, Comparative Table 1
[29] = Port-emergence, 320 g a.i./ha, Comparative Table 7
[30] = 80 g a.i./ha, Comparative Table 8
[31] = 320 g a.i./ha, Comparative Table 6
[32] = Port-emergence, Comparative Table 5
[33] = Post-emergence, 80 g a.i./ha, Comparative Table 10
[34] = 80 g a.i./ha, Comparative Table 2

`CCn1ncc(C(=O)c2ccc(C(F)(F)F)c(S(C)(=O)=O)c2C)c1O` [drawing 31] was tested, and the “Activity against harmful plants VIOTR” value (VIOTR Viola tricolor [1]) was 90%, the “Activity against harmful plants XANST” value [2] was 100% and the “Activity against harmful plants VERPE” value (VERPE Veronica persica [3]; Comparative Table 9) was 90%.

For `CCn1ncc(C(=O)c2ccc(C(F)(F)F)c(S(C)(=O)=O)c2C)c1O` [drawing 19], the “Activity against harmful plants SETVI” value (SETVI Setaria viridis [4]; [24]) was 100%, the “Activity against harmful plants ECHCG” value [5, 24] was 90% and the “Activity against harmful plants LOLMU” value (LOLMU Lolium multiflorum [6]; [24]) was 60%.

For `CCn1ncc(C(=O)c2ccc(S(C)(=O)=O)c(S(C)(=O)=O)c2C)c1O` [drawing 36], the “Activity against harmful plants VIOTR” value (VIOTR Viola tricolor [7]; [25]) was 50%, the “Activity against harmful plants XANST” value [8] was 70% and the “Activity against harmful plants VERPE” value (VERPE Veronica persica [9]; [25]) was 80%. The “Activity against harmful plants MATIN” value (MATIN Matricaria inodora; [25]) was 40%.

With `CCn1ncc(C(=O)c2ccc(C(F)(F)F)c(S(C)(=O)=O)c2C)c1O` [drawing 21] the “Activity against harmful plants AMARE” value [10] was 100%, the “Activity against harmful plants MATIN” value (MATIN Matricaria inodora; [26]) was 90% and the “Activity against harmful plants ABUTH” value [11] was 90%.

With `CCn1ncc(C(=O)c2ccc(C(F)(F)F)c(S(C)(=O)=O)c2C)c1O` [drawing 35] the “Activity against harmful plants VIOTR” value (VIOTR Viola tricolor [7]; [25]) was 80%, the “Activity against harmful plants XANST” value [8] was 100% and the “Activity against harmful plants VERPE” value (VERPE Veronica persica [9]; [25]) was 90%. For the same molecule, the “Activity against harmful plants MATIN” value (MATIN Matricaria inodora; [25]) was 90%.

With `Cc1c(C(=O)c2cnn(C)c2O)ccc(C(F)(F)F)c1S(C)(=O)=O` [drawing 27] the “Activity against harmful plants SETVI” value (SETVI Setaria viridis [4]; [27]) was 90%, the “Activity against harmful plants AVESA” value (AVESA [12]; 80 g a.i./ha) was 70% and the “Activity against harmful plants ECHCG” value [5, 27] was 90%. The “Activity against harmful plants LOLMU” value (LOLMU Lolium multiflorum [6]; [27]) was 80%.

For `CCn1ncc(C(=O)c2ccc(C(F)(F)F)c(S(C)(=O)=O)c2C)c1O` [drawing 15], the “Activity against harmful plants ECHCG” value [13] was 100%, the “Activity against harmful plants LOLMU” value (LOLMU Lolium multiflorum [14]; [28]) was 70% and the “Activity against harmful plants ABUTH” value [15] was 100%.

In the case of `Cc1c(C(=O)c2cnn(C)c2O)ccc(C(F)(F)F)c1Cl`, the “Activity against harmful plants SETVI” value (SETVI Setaria viridis [4]; [29]) is reported as 30%, the “Activity against harmful plants AVESA” value (AVESA [12]; 320 g a.i./ha) is reported as 20% and the “Activity against harmful plants ECHCG” value [5, 29] is reported as 0%. For the same molecule, the “Activity against harmful plants LOLMU” value (LOLMU Lolium multiflorum [6]; [29]) was 20%.

For `CCn1ncc(C(=O)c2ccc(S(C)(=O)=O)c(S(C)(=O)=O)c2C)c1O` [drawing 30], the “Activity against harmful plants GALAP” value (GALAP Galium aparine) was 60%, the “Activity against harmful plants POLCO” value [16] was 30% and the “Activity against harmful plants LOLMU” value (LOLMU Lolium multiflorum [14]; [30]) was 0%.

With `CCn1ncc(C(=O)c2ccc(C(F)(F)F)c(F)c2C)c1O` [drawing 20] the “Activity against harmful plants SETVI” value (SETVI Setaria viridis [4]; [24]) was 0%, the “Activity against harmful plants ECHCG” value [5, 24] was 0% and the “Activity against harmful plants LOLMU” value (LOLMU Lolium multiflorum [6]; [24]) was 0%.

`Cc1c(C(=O)c2cnn(C)c2O)ccc(C(F)(F)F)c1F` was tested, and the “Activity against harmful plants SETVI” value (SETVI Setaria viridis [17]) was 20%, the “Activity against harmful plants AVESA” value (AVESA [18]) was 20% and the “Activity against harmful plants AMARE” value [19, 31] was 50%. For the same molecule, the “Activity against harmful plants LOLMU” value (LOLMU Lolium multiflorum [14]; [31]) was 20%.

For `CCn1ncc(C(=O)c2ccc(C(F)(F)F)c(F)c2C)c1O` [drawing 22], the “Activity against harmful plants AMARE” value [10] was 0%, the “Activity against harmful plants MATIN” value (MATIN Matricaria inodora; [26]) was 0% and the “Activity against harmful plants ABUTH” value [11] was 80%.

For `CCn1ncc(C(=O)c2ccc(C(F)(F)F)c(F)c2C)c1O` [drawing 24], the “Activity against harmful plants STEME” value (STEME Stellaria media [20]) was 0%, the “Activity against harmful plants VIOTR” value (VIOTR Viola tricolor [7]; [32]) was 0% and the “Activity against harmful plants POLCO” value [21] was 60%. For the same molecule, the “Activity against harmful plants VERPE” value (VERPE Veronica persica [9]; [32]) was 0%.

For `CCn1ncc(C(=O)c2ccc(S(C)(=O)=O)c(S(C)(=O)=O)c2C)c1O` [drawing 34], the “Activity against harmful plants SETVI” value (SETVI Setaria viridis [4]; [33]) was 80%, the “Activity against harmful plants ECHCG” value [5, 33] was 80% and the “Activity against harmful plants DIGSA” value [22] was 80%. For the same molecule, the “Activity against harmful plants LOLMU” value (LOLMU Lolium multiflorum [6]; [33]) was 20%.

For `CCn1ncc(C(=O)c2ccc(C(F)(F)F)c(S(C)(=O)=O)c2C)c1O` [drawing 29], the “Activity against harmful plants GALAP” value (GALAP Galium aparine) was 80%, the “Activity against harmful plants POLCO” value [16] was 50% and the “Activity against harmful plants LOLMU” value (LOLMU Lolium multiflorum [14]; [30]) was 70%.

With `CCn1ncc(C(=O)c2ccc(C(F)(F)F)c(F)c2C)c1O` [drawing 18] the “Activity against harmful plants STEME” value (STEME Stellaria media [23]) was 40%, the “Activity against harmful plants VERPE” value (VERPE Veronica persica [3]; Comparative Table 2) was 0% and the “Activity against harmful plants AMARE” value [19, 34] was 0%.

In the case of `CCn1ncc(C(=O)c2ccc(C(F)(F)F)c(S(C)(=O)=O)c2C)c1O` [drawing 23], the “Activity against harmful plants STEME” value (STEME Stellaria media [20]) is reported as 90%, the “Activity against harmful plants VIOTR” value (VIOTR Viola tricolor [7]; [32]) is reported as 80% and the “Activity against harmful plants POLCO” value [21] is reported as 100%. For the same molecule, the “Activity against harmful plants VERPE” value (VERPE Veronica persica [9]; [32]) was 90%.

`CCn1ncc(C(=O)c2ccc(S(C)(=O)=O)c(S(C)(=O)=O)c2C)c1O` [drawing 32] was tested, and the “Activity against harmful plants VIOTR” value (VIOTR Viola tricolor [1]) was 20%, the “Activity against harmful plants XANST” value [2] was 40% and the “Activity against harmful plants VERPE” value (VERPE Veronica persica [3]; Comparative Table 9) was 80%.

In the case of `CCn1ncc(C(=O)c2ccc(C(F)(F)F)c(S(C)(=O)=O)c2C)c1O` [drawing 33], the “Activity against harmful plants SETVI” value (SETVI Setaria viridis [4]; [33]) is reported as 100%, the “Activity against harmful plants ECHCG” value [5, 33] is reported as 90% and the “Activity against harmful plants DIGSA” value [22] is reported as 100%. The “Activity against harmful plants LOLMU” value (LOLMU Lolium multiflorum [6]; [33]) was 60%.

With `Cc1c(C(=O)c2cnn(C)c2O)ccc(C(F)(F)F)c1S(C)(=O)=O` [drawing 25] the “Activity against harmful plants SETVI” value (SETVI Setaria viridis [17]) was 100%, the “Activity against harmful plants AVESA” value (AVESA [18]) was 90% and the “Activity against harmful plants AMARE” value [19, 31] was 100%. The “Activity against harmful plants LOLMU” value (LOLMU Lolium multiflorum [14]; [31]) was 90%.

`CCn1ncc(C(=O)c2ccc(C(F)(F)F)c(S(C)(=O)=O)c2C)c1O` [drawing 17] was tested, and the “Activity against harmful plants STEME” value (STEME Stellaria media [23]) was 90%, the “Activity against harmful plants VERPE” value (VERPE Veronica persica [3]; Comparative Table 2) was 90% and the “Activity against harmful plants AMARE” value [19, 34] was 90%.

`CCn1ncc(C(=O)c2ccc(C(F)(F)F)c(F)c2C)c1O` [drawing 16] was tested, and the “Activity against harmful plants ECHCG” value [13] was 30%, the “Activity against harmful plants LOLMU” value (LOLMU Lolium multiflorum [14]; [28]) was 0% and the “Activity against harmful plants ABUTH” value [15] was 0%.
